The term inhibition in vivo denotes the share of the control response that was lost under treatment. High values mean a response far below the control, low ones a response near the control.

Results on 4 molecules are retold here after US6121323A, “Bishydroxyureas” (3M Innovative Properties Company, priority 1997, dated 2000).

For this experiment, the system named is Leukotriene B4 production in rat blood. Put plainly: Rat ex vivo Leukotriene B4 inhibition. In kind it is in vivo. The note with it: 50 mg/Kg oral, 2 hours post dose, ex vivo A23187 challenge. How it is done:
RAT EX VIVO LEUKOTRIENE B4 INHIBITION
The test method described below measures the ability of a compound when administrated orally to rats to inhibit the production of Leukotriene B4 in their blood which is drawn and challenged.
Rats (CD, male, non-fasted, 250 g) are lightly anesthetized with carbon dioxide and an approximately 0.75 mL sample of whole blood is obtained via cardiac puncture. The sample is dispensed into 12×75 mm polypropylene tubes containing 8-10 μL of 10,000 units/mL heparin, mixed and then maintained on ice. The rats are allowed to recover approximately one hour then dosed orally with compound dissolved in PEG 400 at a 5 mL/Kg volume. Five (5) rats are utilized per group. Two (2) hours post dose the rats are again anesthetized with carbon dioxide and the blood sampled again via cardiac puncture.
Duplicate 200 μL portions of blood are added to 1.0 mL polypropylene tubes. A 10 μL portion of 1 mM A23 187 Calcium Ionophore in dimethyl sulfoxide/Tris buffer is added to each tube. The tubes are gently vortexed then incubated in a 37° C. water bath for 30 minutes. The tubes are then centrifuged at 4000 rpm for 10 minutes. 50 μL portions of plasma are transferred to 1.0 mL tubes containing 200 μL of methanol. The tubes are vortexed then placed in the freezer overnight.
The tubes are removed from the freezer then centrifuged at 4000 rpm for 10 minutes. 20 μL portions of the methanol/plasma supernatant and 10 μl methanol dilutions of LTB4 standard are transferred to 96 well v-bottom microtiter plates. The plates are vacuum dried at 40° C. A 40 μL portion of LTB4 radioimmunoassay buffer is added to each well. The plate is bath sonicated for 5 minutes then assayed according to the manufacturer's instructions (Advanced Magnetics; Cambridge, Mass.). Percent inhibition values are obtained by comparing the level of LTB4 in the post-dose samples to the level in the pre-dose samples according to the equation below. [formula]

`CN(O)C(=O)Nc1cccc(NC(=O)N(C)O)c1` [Example 7, 1,1'-(m-Phenylene)bis(3-hydroxy-3-methylurea)] showed an inhibition in vivo at 50 mg/kg of 59%.
As for `CN(O)C(=O)N[C@H]1CC[C@H](NC(=O)N(C)O)CC1` [Example 9, trans-1,4-Cyclohexanebis(3-hydroxy-3-methylurea)], the figure is 4%; as for `O=C(NCCCCCCNC(=O)N(O)Cc1ccccc1)N(O)Cc1ccccc1` [Example 10, 1,1'-Hexamethylenebis(3-hydroxy-3-benzylurea)], 8%; as for `COc1cc(-c2ccc(NC(=O)N(C)O)c(OC)c2)ccc1NC(=O)N(C)O` [Example 11], 4%.
